Laboratory results from patent EP4813977A1, “NOVEL COMPOUND AND USE THEREOF” (Protier Biotech Inc., priority 2023, dated 2025).

Assays:
[1] = system: T-cell leukemia cell line Jurkat; experiment: Cell viability assay (Cell Counting Kit-8), Jurkat; format: cell-based; conditions: Homo sapiens, 72 hours, CCK-8, absorbance 450 nm
Method: (§1) To evaluate the cytotoxicity of the compounds synthesized in the Preparation Examples against cancer cells, a cell viability assay following treatment with the synthesized compounds was performed using a T-cell leukemia cell line Jurkat (KCLB, Cat# 40152), a human acute monocytic leukemia cell line MV-4-11 (ATCC, Cat# CRL-9591), and a human multiple myeloma cell line MM.1S (ATCC, Cat# CRL-2974).
(§2) As a culture medium for the cell lines, an RPMI medium containing 10 % heat-inactivated FBS and 1 % penicillin/streptomycin (P/S) antibiotics was used. The culture medium was stored refrigerated and warmed in a 37 °C water bath before use. Each cell line was used for the test after a stabilization period of at least 2 weeks after thawing, and cell culture was performed based on information provided by the cell line manufacturer regarding the thawing and subculture conditions.
(§3) The Jurkat, MV-4-11, or MM.1S cell line was seeded in a 96-well plate at a density of 1 × 10^4 cells/well and incubated in a 37 °C CO2 incubator overnight. After incubation, a prepared test compound was applied to each cell line, and the cells were incubated in a 37 °C CO2 incubator for 72 hours. After 72 hours of incubation, a Cell Counting Kit-8 (Dojindo, Cat# CK04-20) reagent was added, and the cells were incubated in a 37 °C CO2 incubator. Then, the absorbance was measured at 450 nm using a SpectraMax M3 Microplate Reader (N=2, duplicate measurement). The evaluation concentrations for evaluating the cytotoxicity of the compounds were 10 points: 100 µM, 20 µM, 4 µM, 0.8 µM, 0.16 µM, 0.032 µM, 0.0064 µM, 0.00128 µM, 0.000256 µM, and 0 µM, and the test was performed at 2 wells/concentration point (n=2). A GI50 was derived using a GraphPad Prism program.

Cereblon (CRBN) protein = target: T1, Cereblon (CRBN) protein (Homo sapiens, UniProt Q96SW2); experiment: CRBN binding affinity, E3scan (Eurofins) competition binding with qPCR read-out; conditions: lower % Ctrl = stronger binding, DMSO = 100 % Ctrl, lenalidomide = 0 % Ctrl
T1 construct: purchased Eurofins (E3scan service); host or cells: HEK-293
Method: Specifically, CRBN was produced using a HEK-293 cell line and labeled with DNA for qPCR detection. Streptavidin-coated magnetic beads were treated with a biotinylated small-molecule ligand at room temperature for 30 minutes to generate an affinity resin for E3scan analysis. The liganded beads were blocked with excess biotin and washed with a blocking buffer (SeaBlock (Pierce), 1 % BSA, 0.05 % Tween 20, 1 mM DTT) to remove unbound ligands and prevent non-specific binding. […] The test compound was prepared as a 100× stock in 100 % DMSO and diluted directly into the assay solution. All reactions were performed in a polypropylene 384-well plate with a final reaction volume of 0.02 mL. […] The CRBN concentration in the eluate was measured by qPCR. […] A lower '% Ctrl' indicates a stronger binding affinity. […] ((test compound signal−positive control signal)/(negative control signal−positive control signal)) × 100 [formula]

[2] = system: human multiple myeloma cell line MM.1S; experiment: Cell viability assay (Cell Counting Kit-8), MM.1S; format: cell-based; conditions: MM1.S, 72 hours, CCK-8, absorbance 450 nm
Method: as §1, §2, §3

[3] = system: human acute monocytic leukemia cell line MV-4-11; experiment: Cell viability assay (Cell Counting Kit-8), MV-4-11; format: cell-based; conditions: MV4-11, 72 hours, CCK-8, absorbance 450 nm
Method: as §1, §2, §3

SMILES	GI50 [1] [nM]	CRBN binding affinity (% Ctrl @ 5µM) (Cereblon (CRBN) protein)	GI50 [2] [nM]	GI50 [3] [nM]
O=C1CCC(N2Cc3cc(C(=O)c4cc5ccccc5[nH]4)ccc3C2=O)C(=O)N1 (centres unmarked) [Compound 3, 3-(5-(1H-indole-2-carbonyl)-1-oxoisoindolin-2-yl)piperidine-2,6-dione]	≤ 100	A (0 ≤ '% Ctrl' < 0.1)	≤ 100	≤ 100
O=C1CCC(N2Cc3cc(C(=O)c4c[nH]c5ccccc45)ccc3C2=O)C(=O)N1 (centres unmarked) [Compound 4, 3-(5-(1H-indole-3-carbonyl)-1-oxoisoindolin-2-yl)piperidine-2.6-dione]	100 to 1000	B (0.1 ≤ '% Ctrl' < 1)	≤ 100	
O=C1CCC(N2Cc3cc(C(=O)c4ccc(Nc5ccccc5)cc4)ccc3C2=O)C(=O)N1 (centres unmarked) [Compound 15, 3-(1-oxo-5-(4-(phenylamino)benzoyl)isoindolin-2-yl)piperidine-2,6-dione]	100 to 1000	A (0 ≤ '% Ctrl' < 0.1)	≤ 100	≤ 100
O=C1CCC(N2Cc3cc(C(=O)c4n[nH]c5ccccc45)ccc3C2=O)C(=O)N1 (centres unmarked) [Compound 17, 3-(5-(1H-indazole-3-carbonyl)-1-oxoisoindolin-2-yl)piperidine-2,6-dione]	100 to 1000	A (0 ≤ '% Ctrl' < 0.1)	≤ 100	≤ 100
O=C1CCC(N2Cc3cc(C(=O)c4c[nH]c5cc(Cl)ccc45)ccc3C2=O)C(=O)N1 (centres unmarked) [Compound 18, 3-(5-(6-chloro-1H-indole-3-carbonyl)-1-oxoisoindolin-2-yl)piperidine-2,6-dione]	100 to 1000		≤ 100	≤ 100
O=C1CCC(N2Cc3cc(C(=O)c4cc5ccc(F)cc5[nH]4)ccc3C2=O)C(=O)N1 (centres unmarked) [Compound 19, 3-(5-(6-fluoro-1H-indole-2-carbonyl)-1-oxoisoindolin-2-yl)piperidine-2,6-dione]	≤ 100		≤ 100	
O=C1CCC(N2Cc3cc(C(=O)c4cc5ccc(Cl)cc5[nH]4)ccc3C2=O)C(=O)N1 (centres unmarked) [Compound 20, 3-(5-(6-chloro-1H-indole-2-carbonyl)-1-oxoisoindolin-2-yl)piperidine-2,6-dione]	≤ 100		≤ 100	
O=C1CCC(N2Cc3cc(C(=O)c4ccc5cn[nH]c5c4)ccc3C2=O)C(=O)N1 (centres unmarked) [Compound 21, 3-(5-(1H-indazole-6-carbonyl)-1-oxoisoindolin-2-yl)piperidine-2,6-dione]	100 to 1000	A (0 ≤ '% Ctrl' < 0.1)	1000 to 10000	> 10000
CNc1ccc2cc(C(=O)c3ccc4c(c3)CN(C3CCC(=O)NC3=O)C4=O)[nH]c2c1 (centres unmarked) [Compound 22, 3-(5-(6-(methylamino)-1H-indole-2-carbonyl)-1-oxoisoindolin-2-yl)piperidine-2,6-dione]	≤ 100	A (0 ≤ '% Ctrl' < 0.1)	≤ 100	≤ 100
O=C1CCC(N2Cc3cc(C(=O)c4cc(-c5ccccc5)c[nH]4)ccc3C2=O)C(=O)N1 (centres unmarked) [Compound 27, 3-(1-oxo-5-(4-phenyl-1H-pyrrole-2-carbonyl)isoindolin-2-yl)piperidine-2,6-dione]	≤ 100	A (0 ≤ '% Ctrl' < 0.1)	≤ 100	
O=C1CCC(N2Cc3cc(C(=O)N4Cc5cccc6cccc4c56)ccc3C2=O)C(=O)N1 (centres unmarked) [Compound 31, 3-(5-(1,2-dihydrobenxo[cd]indole-1-carbonyl)-1-oxoisoindolin-2-yl)piperidine-2,6-dione]	100 to 1000	A (0 ≤ '% Ctrl' < 0.1)	≤ 100	
O=C1CCC(N2Cc3cc(C(=O)c4ccc(-c5ccccc5)cc4)ccc3C2=O)C(=O)N1 (centres unmarked) [Compound 33, 3-(5-([1,1'-biphenyl]-4-carbonyl)-1-oxoisoindolin-2-yl)piperidine-2,6-dione]	≤ 100		≤ 100	
O=C1CCC(N2Cc3cc(C(=O)c4cc5ccccc5o4)ccc3C2=O)C(=O)N1 (centres unmarked) [Compound 34, 3-(5-(benzofuran-2-carbonyl)-1-oxoisoindolin-2-yl)piperidine-2,6-dione]	≤ 100	A (0 ≤ '% Ctrl' < 0.1)	≤ 100	
O=C1CCC(N2Cc3cc(C(=O)c4cn(-c5ccccc5)c5ccccc45)ccc3C2=O)C(=O)N1 (centres unmarked) [Compound 35, 3-(1-oxo-5-(1-phenyl-1H-indole-3-carbonyl)isoindolin-2-yl)piperidine-2,6-dione]	≤ 100	A (0 ≤ '% Ctrl' < 0.1)	≤ 100	
O=C1CCC(N2Cc3cc(C(=O)c4coc5ccccc45)ccc3C2=O)C(=O)N1 (centres unmarked) [Compound 37, 3-(5-(benzofuran-3-carbonyl)-1-oxoisoindolin-2-yl)piperidine-2,6-dione]	100 to 1000	C (1 ≤ % Ctrl' < 10)	≤ 100	
O=C1CCC(N2Cc3cc(C(=O)c4ccc5c(c4)OCO5)ccc3C2=O)C(=O)N1 (centres unmarked) [Compound 42, 3-(5-(benzo[d][1,3]dioxole-5-carbonyl)-1-oxoisoindolin-2-yl)piperidine-2,6-dione]	≤ 100		≤ 100	
O=C1CCC(N2Cc3cc(C(=O)c4ccc5ccccc5c4)ccc3C2=O)C(=O)N1 (centres unmarked) [Compound 44, 3-(5-(2-naphthoyl)-1-oxoisoindolin-2-yl)piperidine-2,6-dione]	≤ 100		> 10000	
CN(C)c1ccc(C(=O)c2ccc3c(c2)CN(C2CCC(=O)NC2=O)C3=O)cc1 (centres unmarked) [Compound 46, 3-(5-(4-(dimethylamino)benzoyl)-1-oxoisoindolin-2-yl)piperidine-2,6-dione]	≤ 100		≤ 100	
O=C1CCC(N2Cc3cc(C(=O)c4ccc(Br)cc4)ccc3C2=O)C(=O)N1 (centres unmarked) [Compound 49, 3-(5-(4-bromobenzoyl)-1-oxeisoindolin-2-yl)piperidine-2,6-dione]	≤ 100		1000 to 10000	
O=C1CCC(N2Cc3cc(C(=O)c4ccc(O)cc4)ccc3C2=O)C(=O)N1 (centres unmarked) [Compound 52, 3-(5-(4-hydroxybenzoyl)-1-oxoisoindolin-2-yl)piperidine-2,6-dione]	100 to 1000		≤ 100	
O=C1CCC(N2Cc3cc(C(=O)c4ccc(C5CCCCC5)cc4)ccc3C2=O)C(=O)N1 (centres unmarked) [Compound 55, 3-(5-(4-cyclohexylbenzoyl)-1-oxoisoindolin-2-yl)piperidine-2,6-dione]	≤ 100		≤ 100	
Cn1c(C(=O)c2ccc3c(c2)CN(C2CCC(=O)NC2=O)C3=O)cc2ccccc21 (centres unmarked) [Compound 59, 3-(5-(1-methyl-1H-indole-2-carbonyl)-1-oxoisoindolin-2-yl)piperidine-2,6-dione]	100 to 1000		≤ 100	
CC(C)(C)c1ccc(C(=O)c2ccc3c(c2)CN(C2CCC(=O)NC2=O)C3=O)cc1 (centres unmarked) [Compound 63, 3-(5-(4-(tert-butyl)benzoyl)-1-oxoisoindolin-2-yl)piperidine-2,6-dione]	≤ 100		≤ 100	
O=C1CCC(N2Cc3cc(C(=O)c4ccc5ccccc5n4)ccc3C2=O)C(=O)N1 (centres unmarked) [Compound 70, 3-(1-oxo-5-(quinoline-2-carbonyl)isoindolin-2-yl)piperidine-2,6-dione]	1000 to 10000		> 10000	
